# Results reported in patent US10874740B2, “5-ALA derivatives and use thereof” (UNIVERSITE DE GENEVE, priority 2015, dated 2020).
# Where a name gives a salt, the structure may show the parent alone.
# Columns and labels:
# [1] = In vivo chicken acute toxicity (chick embryo, intravenous); details: chicken (chick embryo), in vivo; chick embryos, intravenous injection, viability 24 h after injection
# Procedure: (§1) 5-ALA-Hex is known for its pronounced acute toxicity after intravenous injection and the LD50 of the compounds of the invention was determined by escalating doses of compounds dissolved in milliQ™ water and pH adjusted to 7.4 administered to embryos via intravenous injection. The viability of chick embryos has been evaluated after 24 h after injection. […] This higher LD50 value is believed to be a consequence of the rapid conversion into 5-ALA-Hex. Therefore, the very high doses of Compound 1 that were tolerated by chick embryos (LD50 of 500 μmol/kg) are consistent since this compound is much more slowly converted into 5-ALA-Hex (and 5-ALA) in all tissues expressing alkaline phosphatase.
# chick embryos = experiment: as above
# Procedure: as §1
# CAM U87Mg spheroid tumor = experiment: In vivo CAM U87Mg spheroid tumor model, fluorescence imaging; set-up: species or system chick; details: Compound 7 100 μmol/kg; for tumor fluorescence signal / contrast: intravenous, Compound 1 300 μmol/kg, PpIX 100 μmol/kg, imaging 0, 30, 60, 120 min
# Procedure: Compounds of the invention were tested in vivo in using the chorioallantoic membrane (CAM) model U87-Mg tumor spheroids were obtained using a modified procedure (De Magalhaes et al., 2010, 20-26) using 2.5×10^4 cells/mL. Spheroids grew 4 days before inoculation into the CAM. On embryonic development day (EDD) 7, the hole in the eggshell was enlarged to allow access to the CAM vasculature, using a needle (25 Gauge) a hole was drilled in the CAM. A binocular lens Leica M80 (Wetzlar, Germany) was used to perform the inoculation. Once the hole was pierced in the CAM, the spheroid (approximately of 200 μm) was placed in the cavity beneath the hole. Cell medium (20 μL) was placed on the spheroid to allow the tumor to attach to the CAM membrane and develop. Then, the eggs were sealed with parafilm and returned to the incubator to let spheroids grow until EDD13. Compounds were injected intravenously into the CAM vasculature (10-40 μL), preferentially into a large blood vessels using a needle (gauge 33, 51 mm, tap N type) attached to a 100 μL syringe (Hamilton, Reno, Nev.). Fluorescence imaging of tumor nodules was done with 12-bit monochrome CDD camera (Retiga EX Q-Imaging Canada) connected to fluorescence Eclipse E600 FN microscope with a CFI achromat objective characterized by magnification 4×, numerical aperture of 0.10 and a working distance of 30 mm (Nikon, Tokyo, Japan). A conical holder was used to place the eggs during experimentation under the objective of fluorescence microscope. A mercury arc lamp HBO 103/W/2 (MS Scientific Berlin, Germany) was used to provide illumination. For the detection of PpIX a BV-2A cube (Nikon, Tokyo, Japan) with an excitation filter: 400-440 nm, a dichroic mirror (455 nm) and an emission filter (470 nm) was used. A hollow slider filter 650/50 nm was added. Band pass filter 560/40 was used to image the autofluorescence of tumors. All pictures were taken with a 90 ms exposure and gain set at 50. […] Data was analysed using multiple t-tests and statistical significance determined at each time point.
# A549 cell line = experiment: Porphyrin accumulation (PpIX fluorescence) in A549 cells; type: cell-based, human; details: tested 0.1 to 3.3 mM
# Procedure: (§2) Human bladder carcinoma cell line T24 (ATTC® HTB-4™), human lung adenocarcinoma cell line A549 (ATTC® CCL-185™), human prostate cancer cell line PC-3 (ATTC® CRL-1435™), and human glioblastoma cell line U-87Mg (ATTC® HTB-14™) were grown as monolayers and maintained in DMEM^+GlutaMAX™-I medium, F12K nutrient mix, and MEM, respectively. Culture media were supplemented with 10% fetal calf serum (FCS) and […] streptomycin and 100 IU/ml penicillin. Cells were cultivated at 37° C. in humidified 95% air and 5% CO2 atmosphere and routinely maintained by serial passage in a new medium every 2-5 days, depending on the cell type.
# (§3) Cell viability was measured using an MTT assay. T24 (5000 cells/well), PC3 (12000 cells/well), A549 (10000 cells/well) and U87Mg (10000 cells/well) were seeded in a 96-well plate and grown 12 to 18 hours. Then, the medium was replaced with medium containing increasing concentrations of different compounds of the invention (from 0.1 to 3.3 mM) and PPIX fluorescence was recorded with a plate reader (Safire, Tecan, Switzerland) at different time points (1, 2, 4, 6, 8 and 24 h). Excitation wavelength was set at 405 nm and emission wavelength at 630 nm. […] After background subtraction, porphyrin accumulation was calculated according to the fluorescence intensity at 635 nm.
# T24 cell line = experiment: Porphyrin accumulation (PpIX fluorescence) in T24 cells; type: cell-based, human; details: tested 0.1 to 3.3 mM
# Procedure: as §2, §3
# U87-MG cell line = experiment: Porphyrin accumulation (PpIX fluorescence) in U87-MG cells; type: cell-based, human; details: tested 0.1 to 3.3 mM
# Procedure: as §2, §3
# [2] = Chemical stability in buffer at three pH values (UPLC); type: physicochemical; details: 5 mM, 37° C., 20 mM buffers pH 4.00, 7.40, 8.90
# Procedure: Chemical stability was investigated for compounds of the invention as compared to the known ester ALA-Hex as follows: Chemical stability was assayed at three different pH value by dissolving the compound of interest (or ALA-Hex control) in an appropriate buffer (pH=4.00 acetate buffer; pH=7.40 phosphate buffer; and pH 8.90 borate buffer). The buffer concentration was 20 mM. The solution was kept at 37° C. and assayed at different time points. Quantification of the starting material and degradation products was performed by UPLC using the Thermo Scientific Accela UPLC-MS system. The column used was Macherey-Nagel Nucleodur C18 Gravity 50/2 1.8 μm. 10 μL aliquots were injected and eluted using 10% acetonitrile and 90% ammonium formate buffer (10 mM) isocratic elution. The column was kept at 40° C. and the flow rate was 0.4 mL/min. The quantification was performed by integrating AUCs of the chromatograms of the peaks of interest at 220 nm.
# PC3 cell line = experiment: Porphyrin accumulation (PpIX fluorescence) in PC3 cells; type: cell-based, human; details: for porphyrin synthesis capability (fluorescence kinetics) compared to ALA-hex: 1 mM; for concentration for optimal (highest) porphyrin formation: tested 0.1 to 3.3 mM
# Procedure: as §2
# Cell viability was measured using an MTT assay. T24 (5000 cells/well), PC3 (12000 cells/well), A549 (10000 cells/well) and U87Mg (10000 cells/well) were seeded in a 96-well plate and grown 12 to 18 hours. Then, the medium was replaced with medium containing increasing concentrations of different compounds of the invention (from 0.1 to 3.3 mM) and PPIX fluorescence was recorded with a plate reader (Safire, Tecan, Switzerland) at different time points (1, 2, 4, 6, 8 and 24 h). Excitation wavelength was set at 405 nm and emission wavelength at 630 nm. After 24 hours of incubation with different products, the cells were washed twice with DPBS and fresh medium was put into each well. They were then either irradiated with a light dose of 10 J/cm^2 or kept in the dark. After background subtraction, porphyrin accumulation was calculated according to the fluorescence intensity at 635 nm.
# [3] = Nanoassembly formation and size by Dynamic Light scattering (DLS); type: physicochemical; details: for formation of nanoassemblies in aqueous solution: ethanol solution added dropwise to MiliQ water; for average diameter of particles (DLS): nanomicelles 1 mg/mL in water
# Procedure: 1 mg of compound 4 or compound 6 was dissolved in ethanol (300 μL). This solution was slowly added dropwise using a microsyringe to MiliQ water (1.2 mL) under magnetic stirring (500 RPM). […] The organic solvent was evaporated under reduced pressure (100 mbar) at 40° C. yielding the final solution of nanomicelles of 1 mg/mL which were analysed by Dynamic Light scattering (DLS) using Zetasizer Nano ZS machine (Malvern) and stored at ambient temperature. Dynamic Light scattering (DLS) results are presented under FIG. 4 for compound 4 (A) and for compound 6 (B) and show a high homogeneity in size of the particule population with an average diameter of about 73 nm for compound 4 and 98.5 nm for compound 6.
# [4] = tested on: alkaline phosphatase from calf intestine; experiment: In vitro enzymatic activation by alkaline phosphatase (UPLC); type: biochemical; details: borate buffer pH 8.90, 0.5 mM magnesium chloride, 1 U to 100 U alkaline phosphatase, 37° C.
# Procedure: The ability of compounds of the invention to release ALA in presence of a phosphatase was investigated as follows: In vitro activation of compounds of interest by alkaline phosphatase was assayed by dissolving the compound of the invention (or ALA-Hex control) in 20 mM borate buffer at pH 8.90 containing 0.5 mM magnesium chloride and 1 U to 100 U of alkaline phosphatase from calf intestine (Applichem). The solution was kept at 37° C. and assayed at different time points. Quantification of the starting material and degradation products was performed by UPLC using the Thermo Scientific Accela UPLC-MS system. The column used was Macherey-Nagel Nucleodur C18 Gravity 50/2 1.8 μm. […] aliquots were injected and eluted using appropriate acetonitrile and ammonium formate buffer (10 mM) ratio with isocratic elution according to the compound of invention. The quantification was performed by integrating AUCs of the chromatograms of the peaks of interest at 220 nm.
structure (smiles),measurement,setting,value
"CCCCCCOC(=O)CCC(=O)CNP(=O)(O)Oc1ccccc1 [Compound 1, Triethylammonium salt of hexyl 5-((hydroxy(phenoxy)phosphoryl)amino)-4-oxopentanoate]",LD50 at 24 h,[1],500 µmol/kg
same,increase in LD50 compared to 5-ALA-Hex,chick embryos,7 fold
same,tumor fluorescence signal / contrast,CAM U87Mg spheroid tumor,delayed onset of the fluorescence signal but a robust contrast
same,concentration for optimal (highest) porphyrin formation,A549 cell line,3.3 mM
same,concentration for optimal (highest) porphyrin formation,T24 cell line,3.3 mM
same,concentration for optimal (highest) porphyrin formation,U87-MG cell line,1.0 mM
same,chemical stability (% of compound remaining in solution versus time) as compared to ALA-Hex,[2],increased chemical stability
same,porphyrin synthesis capability (fluorescence kinetics) compared to ALA-hex,PC3 cell line,comparable porphyrin synthesis capability
same,concentration for optimal (highest) porphyrin formation,PC3 cell line,3.3 mM
"CCCCCCOC(=O)CCC(=O)CNP(=O)(O)OCCC/C(C)=C/CC/C(C)=C/CC/C=C(\C)CC/C=C(\C)CCC=C(C)C [Compound 4, Hexyl 5-((hydroxy(((4E,8E,12E,16E)-4,8,13,17,21-pentamethyldocosa-4,8,12,16,20-pentaen-1-yl)oxy)phosphoryl)amino)-4-oxopentanoate]",formation of nanoassemblies in aqueous solution,[3],Nanoassemblies formed spontaneously
same,average diameter of particles (DLS),[3],about 73 nm
"CCCCCCOC(=O)CCC(=O)CN [Compound 5-ALA-Hex, 5-ALA-hexyl ester, reference compound]",LD50,"chick embryos; intravenous injection, viability 24 h after injection",75 µmol/kg
"CCCCCCOC(=O)CCC(=O)CNP(=O)(NCC(=O)CCC(=O)OCCCCCC)OCCC/C(C)=C/CC/C(C)=C/CC/C=C(\C)CC/C=C(\C)CCC=C(C)C [Compound 6, Bis-hexyl 5-((hydroxy(((4E,8E,12E,16E)-4,8,13,17,21-pentamethyldocosa-4,8,12,16,20-pentaen-1-yl)oxy)phosphoryl)bis-amino)-4-oxopentanoate]",formation of nanoassemblies in aqueous solution,[3],Nanoassemblies formed spontaneously
same,average diameter of particles (DLS),[3],~98.5 nm
"CCCCCCOC(=O)CCC(=O)CNC(=O)OCOP(=O)(O)O [Compound 7, hexyl 4-oxo-5-((((phosphonooxy)methoxy)carbonyl)amino)pentanoate]",LD50 at 24 h,[1],200 µmol/kg
same,increase in LD50 compared to 5-ALA-Hex,chick embryos,several fold
same,time post injection at which fluorescence started to outline the tumors,CAM U87Mg spheroid tumor; intravenous into CAM vasculature,30 min
same,tumor fluorescence signal / contrast,CAM U87Mg spheroid tumor,excellent and statistically significant signal to background at 1 h and also at 2 h
same,concentration for optimal (highest) porphyrin formation,A549 cell line,0.33 mM
same,concentration for optimal (highest) porphyrin formation,T24 cell line,0.1 mM
same,concentration for optimal (highest) porphyrin formation,U87-MG cell line,0.1 mM
same,chemical stability (% of compound remaining in solution versus time) as compared to ALA-Hex,[2],increased chemical stability
same,porphyrin synthesis capability (fluorescence kinetics) compared to ALA-hex,PC3 cell line,comparable porphyrin synthesis capability
same,concentration for optimal (highest) porphyrin formation,PC3 cell line,0.33 mM
same,release of ALA upon activation of a phosphatase,[4],slower than the one from compound 1
